Experimental data as given in patent publication US20260174860A1, “HYBRID COMPOUNDS OF SCLAREOL AND DOXORUBICIN, THEIR SYNTHESIS AND APPLICATION” (INSTITUTE FOR BIOLOGICAL RESEARCH "SINISA STANKOVIC" - …, priority 2023, published 2026).

Assays:
[1] = system: NCI-H460 human non-small cell lung carcinoma cell line; assay: MTT test of cell viability, 72 h treatment; assay type: cell-based; conditions: for IC50: MTT, 72 h; for Selectivity Index: ratio IC50 MRC-5 (2,000 cells per well) / IC50 NCI-H460
Experimental: (§1) The MTT test was used to evaluate the effect of the compounds on cell viability. The test relies on the reduction of tetrazolium salt (MTT) to formazan, which is catalyzed by the mitochondrial enzyme succinate dehydrogenase. The activity of succinate dehydrogenase, which is indicative of mitochondrial respiration, is taken as an indirect measure of the metabolic activity of the cell, and thus its viability. The MTT-formazan produced is a purple-colored product, whose absorbance is measured at a wavelength of 570 nm. • a) To determine the inhibition of cell growth by SC, different cell lines were exposed to increasing concentrations of SC (5, 10, 25, 50, and 100 μM). The cells were seeded in 96-well microtiter plates at a density of 2,000 cells per well for NCI-H460, NCI-H460/R, DLD1 and DLD1-TxR, and 4,000 cells per well for MRC-5, U87, U87-TxR, and U251 in 100 μL of the appropriate medium. Control cells that received no treatment were also seeded at the same time. After 24 h for adaptation, the cells were treated with various concentrations of SC. After 72 h of treatment, 0.2 mg/ml MTT was added to each well in the appropriate cell culture medium. After 4 h of incubation at 37° C. with 5% CO2, the medium was removed, and 100 μL of DMSO were added to each well, to dissolve the formazan. The absorbance of the samples was measured at 570 nm using a Multiskan Sky Microplate spectrophotometer (ThermoFisher Scientific, USA). The results were analyzed using GraphPad Prism 8.0.2. software, and the IC50 values were determined by non-linear regression. • b) To test the interaction between SC and DOX in terms of cytotoxicity in different cell lines, cells were seeded in 96-well microtiter plates at a density of 2,000 cells per well for NCI-H460, NCI-H460/R, DLD1 and DLD1-TxR, and 4,000 cells per well for MRC-5, U87, U87-TxR, and U251 in 100 μl of the appropriate medium. SC (10 and 20 μM) was combined with increasing concentrations of DOX (20, 50, 100, 200, and 500 nM). The cells were treated with the simultaneous combinations for 72 h. After this period, 0.2 mg/ml MTT was added to each well, followed by 4 hours of incubation at 37° C. with 5% CO2. The medium was then removed, and DMSO was added to each well to dissolve the formazan.
(§2) The analysis was carried out using GraphPad Prism software version 8.0.2 to determine the nature of the interaction, namely synergistic, antagonistic, or additive, between compounds. This was done using the computer software CalcuSyn, which is based on the combination index method. The method takes into account the concentration of compounds, the individual effect of each compound, as well as the effect of two compounds in combination. The values of the combination indices (CI) describe the nature of the interaction: Cl<0.9 indicates synergism, Cl>1.1 indicates antagonism, and Cl=0.9-1.1 indicates an additive effect. • c) To compare the resistance and selectivity profiles among SC, DOX, CON1, and CON2, human glioblastoma cell lines U87, U87-TxR, and MRC-5 were seeded at a density of 4,000 cells per well in 100 μL of the appropriate medium. In contrast, NCI-H460, NCI-H460/R, and MRC-5 were seeded at a density of 2,000 cells per well in 100 μL of the proper medium. The effect of SC derivatives LIG1 and LIG2 was also examined. The range of concentrations differed among the cell lines and the compounds. For LIG1 and LIG2, the range of concentrations for all cell lines was 50, 100, 200, 300, and 400 μM, while the same range was used for the MRC-5 in the case of SC, CON1, and CON2. DOX concentrations ranged 0.1, 0.25, 0.5, 1, and 2.5 μM for U87 and NCI-H460, and 0.25, 0.5, 1, 2.5, and 5 μM for U87-TxR, NCI-H460/R, and MRC-5. […] concentrations used for SC, CON1, and CON2 treatments varied in the range 1, 2.5, 5, 10, 25, 50, and 100 μM. The treatment lasted 72 h. After the treatment period, 0.2 mg/ml MTT in the appropriate cell culture medium was added to each well. […]

[2] = system: U87 human glioblastoma cell line; assay: MTT test of cell viability, 72 h treatment; assay type: cell-based; conditions: for IC50: MTT, 72 h; for Selectivity Index: ratio IC50 MRC-5 (4,000 cells per well) / IC50 U87
Experimental: as §1, §2

[3] = system: U87-TxR resistant human glioblastoma cell line; assay: MTT test of cell viability, 72 h treatment; assay type: cell-based; conditions: for IC50: MTT, 72 h, MDR line; for Relative Resistance: ratio IC50 U87-TxR / IC50 U87
Experimental: as §1
(§3) The absorbance of the samples was measured at 570 nm using a Multiskan Sky Microplate spectrophotometer.
as §2, with “h.” for “h. After the treatment period, 0.2 mg/ml MTT in the appropriate cell culture medium was added to each well.”

[4] = system: MRC-5 human lung fibroblast cell line; assay: MTT test of cell viability, 72 h treatment; assay type: cell-based
Experimental: as §1, §3
as §2, with “h.” for “h. After the treatment period, 0.2 mg/ml MTT in the appropriate cell culture medium was added to each well.”

[5] = system: NCI-H460/R resistant human non-small cell lung carcinoma cell line; assay: MTT test of cell viability, 72 h treatment; assay type: cell-based; conditions: for IC50: MTT, 72 h, MDR line; for Relative Resistance: ratio IC50 NCI-H460/R / IC50 NCI-H460
Experimental: as §1, §3
as §2, with “h.” for “h. After the treatment period, 0.2 mg/ml MTT in the appropriate cell culture medium was added to each well.”

[6] = Zetasizer measurement of size, polydispersity and zeta potential; assay type: physicochemical; conditions: 25° C., diluted 100 times with ultrapure water, mean of three
Experimental: The Malvern Zetasizer Nano ZS (Malvern Instruments, United Kingdom) was used to analyze the physico-chemical stability characteristics of conjugates. The measurement range was from 0.6 nm up to […]. The mean size of conjugates, the polydispersity index (PDI) and zeta potential were measured. All measurements were taken at a temperature of 25° C. and each sample was diluted 100 times with ultrapure water. The measurements were repeated three times, and the results were presented as the mean value. PDI is a parameter used to define the size range of particles. The term “polydispersity” (or “dispersity” as recommended by IUPAC) describes the degree of non-uniformity of a size distribution of particles. Zeta potential represents the surface charge of nanoparticles and indicates their long-term stability.

[7] = Homo sapiens, MRC5, 72 h, 2,000 cells per well (non-small cell carcinoma experiments)
[8] = Homo sapiens, MRC5, 72 h, 4,000 cells per well (glioblastoma experiments)

Compound | IC50 ([1]; Homo sapiens, NCI-H460) [µM] | Selectivity Index [1] | IC50 ([2]; Homo sapiens) [µM] | Selectivity Index [2] | IC50 ([3]; Homo sapiens, U87-TxR) [µM] | Relative Resistance [3] | IC50 [4, 7] [µM] | IC50 [4, 8] [µM] | IC50 ([5]; Homo sapiens, NCI-H460) [µM] | Relative Resistance [5] | IC50 [1] [µM] | IC50 [2] [µM] | Z-Average [6] [nm·days] | IC50 [3] [µM] | IC50 ([4]; 2,000 cells per well (non-small cell carcinoma experiments)) [µM] | IC50 ([4]; 4,000 cells per well (glioblastoma experiments)) [µM] | IC50 [5] [µM]
CC1(C)CCC[C@]2(C)[C@@H](CC[C@@](C)(O)/C=C/c3ccc(CNCCCNC(=O)CCC(=O)O)cc3)[C@](C)(O)CC[C@@H]12 [LIG1, 4-((3-((4-((R,E)-3-hydroxy-5-((1R,2R,4aS,8aS)-2-hydroxy-2,5,5,8a-tetramethyldecahydronaphthalen-1-yl)-3-methylpent-1-en-1-yl)benzyl)amino)propyl)amino)-4-oxobutanoic acid] | 41.7 | 9.4 | 74.4 | 3.2 | 61.7 | 0.8 | 393 | 236 | 55.2 | 1.3 |  |  |  |  |  |  | 
CC1(C)CCC[C@]2(C)[C@@H](CC[C@@](C)(O)/C=C/c3ccc(CNCCCCCCNC(=O)CCC(=O)O)cc3)[C@](C)(O)CC[C@@H]12 [LIG2, 4-((6-((4-((R,E)-3-hydroxy-5-((1R,2R,4aS,8aS)-2-hydroxy-2,5,5,8a-tetramethyldecahydronaphthalen-1-yl)-3-methylpent-1-en-1-yl)benzyl)amino)hexyl)amino)-4-oxobutanoic acid] | 99.6 | 6.1 | 345 | >1.2 | 273 | 0.8 | 610 | > 400 | 110 | 1.1 |  |  |  |  |  |  | 
N1-((2S,3S,4S,6R)-3-hydroxy-2-methyl-6-(((1S,3S)-3,5,12-trihydroxy-3-(2-hydroxyacetyl)-10-methoxy-6,11-dioxo-1,2,3,4,6,11-hexahydrotetracen-1-yl)oxy)tetrahydro-2H-pyran-4-yl)-N4-(6-((4-((R,E)-3-hydroxy-5-((1R,2R,4aS,8aS)-2-hydroxy-2,5,5,8a-tetramethyldecahydronaphthalen-1-yl)-3-methylpent-1-en-1-yl)benzyl)amino)hexyl) succinamide [CON2] |  | 5.2 |  | >64.5 |  | 4.2 |  |  |  | 3.3 | 25.1 | 6.2 | 180 ± 14.7 | 26.2 | 131 | > 400 | 83.3
